Activity calls are given as the source filed them.
Assays:
[1] = target: ORF 73 (Human herpesvirus 8, UniProt O40947); test: KSHV LANA DNA-binding disruption – biochemical, fluorescence polarization, cherry-picked samples, dose response (AID 504725); set-up: species or system Human gammaherpesvirus 8;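 further: fluorescence polarization of a labeled DNA duplex reporting LANA DNA binding; potency is for inhibitors that block LANA binding to the DNA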
[2] = target: T1, Histone-lysine N-methyltransferase NSD2 (Homo sapiens, UniProt O96028); type: biochemical
T1 sequence (O96028 whole entry): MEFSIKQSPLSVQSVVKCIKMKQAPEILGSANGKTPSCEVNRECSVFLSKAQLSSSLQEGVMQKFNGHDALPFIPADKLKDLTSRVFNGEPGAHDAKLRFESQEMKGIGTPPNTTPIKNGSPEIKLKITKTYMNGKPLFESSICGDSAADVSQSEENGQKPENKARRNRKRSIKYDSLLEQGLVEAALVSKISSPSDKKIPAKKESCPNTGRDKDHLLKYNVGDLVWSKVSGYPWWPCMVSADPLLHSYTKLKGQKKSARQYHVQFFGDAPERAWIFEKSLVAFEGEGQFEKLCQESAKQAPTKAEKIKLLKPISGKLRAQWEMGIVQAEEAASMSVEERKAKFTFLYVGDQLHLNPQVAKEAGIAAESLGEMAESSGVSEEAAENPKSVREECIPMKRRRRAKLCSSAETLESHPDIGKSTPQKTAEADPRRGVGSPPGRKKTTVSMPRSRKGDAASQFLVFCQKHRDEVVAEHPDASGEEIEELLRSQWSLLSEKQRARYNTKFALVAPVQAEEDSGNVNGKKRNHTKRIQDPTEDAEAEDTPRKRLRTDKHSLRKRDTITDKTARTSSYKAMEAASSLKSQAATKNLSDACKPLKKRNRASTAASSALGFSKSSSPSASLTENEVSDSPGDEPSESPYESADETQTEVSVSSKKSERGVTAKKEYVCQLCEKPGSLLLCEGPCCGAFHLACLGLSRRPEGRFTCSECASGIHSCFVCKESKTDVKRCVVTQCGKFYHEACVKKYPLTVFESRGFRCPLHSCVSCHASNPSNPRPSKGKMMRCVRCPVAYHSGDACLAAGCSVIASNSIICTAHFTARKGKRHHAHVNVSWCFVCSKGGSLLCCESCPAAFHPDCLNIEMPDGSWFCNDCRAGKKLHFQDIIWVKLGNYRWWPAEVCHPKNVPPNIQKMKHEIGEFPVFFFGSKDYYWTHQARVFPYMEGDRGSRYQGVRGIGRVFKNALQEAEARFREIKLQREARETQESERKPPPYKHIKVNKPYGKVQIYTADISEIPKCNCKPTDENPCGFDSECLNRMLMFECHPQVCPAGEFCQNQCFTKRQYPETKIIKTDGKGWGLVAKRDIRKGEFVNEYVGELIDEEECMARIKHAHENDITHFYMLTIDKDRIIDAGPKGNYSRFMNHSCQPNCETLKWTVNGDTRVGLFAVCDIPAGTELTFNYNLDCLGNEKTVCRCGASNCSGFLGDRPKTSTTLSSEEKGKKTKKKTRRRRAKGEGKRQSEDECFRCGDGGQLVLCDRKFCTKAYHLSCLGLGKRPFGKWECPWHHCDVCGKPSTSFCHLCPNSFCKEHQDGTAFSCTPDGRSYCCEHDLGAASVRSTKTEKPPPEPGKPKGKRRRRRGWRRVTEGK

[3] = target: T2, Carboxy-terminal domain RNA polymerase II polypeptide A small phosphatase 1 (Homo sapiens, UniProt Q9GZU7); test: CTDSP1 inhibitors, concentration-response, biochemical, absorbance readout, ultra-high-throughput screen actives (AID 540297); type: functional
T2 sequence (Q9GZU7 whole entry): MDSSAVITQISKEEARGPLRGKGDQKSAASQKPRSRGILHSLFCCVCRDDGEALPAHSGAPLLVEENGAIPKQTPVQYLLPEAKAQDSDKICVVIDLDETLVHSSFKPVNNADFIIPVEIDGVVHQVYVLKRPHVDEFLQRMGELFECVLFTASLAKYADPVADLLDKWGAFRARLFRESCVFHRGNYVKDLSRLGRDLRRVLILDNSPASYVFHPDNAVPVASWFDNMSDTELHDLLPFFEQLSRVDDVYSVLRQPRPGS

[4] = target: X-box-binding protein 1 (Homo sapiens, UniProt P17861); type: functional, Cricetulus griseus;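 further: confirmatory dose-response counter-screen serving a CHOP assay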
Chain of X-box-binding protein 1 (P17861 whole entry): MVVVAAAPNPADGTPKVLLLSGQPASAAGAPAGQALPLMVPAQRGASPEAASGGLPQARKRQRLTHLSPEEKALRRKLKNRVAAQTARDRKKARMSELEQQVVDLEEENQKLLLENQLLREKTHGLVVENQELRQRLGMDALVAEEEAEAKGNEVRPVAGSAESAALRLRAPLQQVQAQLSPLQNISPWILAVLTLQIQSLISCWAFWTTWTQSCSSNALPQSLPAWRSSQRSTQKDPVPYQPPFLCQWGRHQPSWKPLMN

[5] = BJeH cell viability loss – BJeH cells, dry powder, counter-screen for Ras selective lethality project, dose response (AID 493054); type: functional, cell-based
[6] = target: Protein phosphatase methylesterase 1 (Homo sapiens, UniProt Q9Y570); test: endogenous PME-1 and serine hydrolase inhibition – cell lysate, mouse brain cytosol, FP-rhodamine, gel ABPP, selectivity assay for PME-1 inhibitor project, dose response, panel member PME-1 Assay Panel member description: Inhibition of endogenously expressed PME-1 (AID 2366)
[7] = target: Scavenger receptor class B member 1 (Mus musculus, UniProt Q61009); test: mouse SR-BI DiI-HDL uptake blockers – ldlA[mSR-BI] cells, fluorescence, cherry pick, dose response (AID 493194); type: functional, cell-based;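 further: cellular uptake of fluorescent DiI-labeled HDL measured as cell fluorescence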
Chain of Scavenger receptor class B member 1 (Q61009 whole entry): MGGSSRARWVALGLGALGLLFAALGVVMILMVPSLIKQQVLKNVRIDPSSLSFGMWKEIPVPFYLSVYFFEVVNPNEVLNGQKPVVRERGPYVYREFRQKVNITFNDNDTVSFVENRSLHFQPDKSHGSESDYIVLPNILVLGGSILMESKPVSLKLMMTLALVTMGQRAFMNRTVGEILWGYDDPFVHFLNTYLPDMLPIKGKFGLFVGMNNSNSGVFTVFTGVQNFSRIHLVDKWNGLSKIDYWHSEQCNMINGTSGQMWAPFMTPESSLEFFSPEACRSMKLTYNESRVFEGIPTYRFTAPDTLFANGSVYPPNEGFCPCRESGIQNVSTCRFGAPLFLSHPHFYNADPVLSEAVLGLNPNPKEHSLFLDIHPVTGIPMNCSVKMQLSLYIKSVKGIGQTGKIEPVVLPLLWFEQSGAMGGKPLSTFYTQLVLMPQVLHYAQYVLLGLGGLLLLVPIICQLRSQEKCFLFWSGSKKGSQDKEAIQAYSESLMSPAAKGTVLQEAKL

[8] = test system: HeLa; test: Cytotoxicity counterscreen assay for transcriptional activators of heat shock protein 70 (Hsp70). [Related pubchem assays: 1203, 1252 ]; type: functional; conditions: Homo sapiens;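 further: cells exposed to compound for 16 hours before readout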
[9] = target: Acyl-homoserine lactone acylase PvdQ (Pseudomonas aeruginosa (strain LESB58), UniProt Q9I194); test: PvdQ acylase enzyme activity blockers – biochemical, fluorescence, plate reader and imaging, cherry-picks, dose response (AID 493231)
[10] = target: CAAX prenyl protease 2 (Homo sapiens, UniProt Q9Y256); test: inhibition of Ras-converting CAAX protease Rce1 – biochemical, yeast membranes, quenched-peptide fluorescence, cherry-pick, dose response (AID 588849)
[11] = target: Trypsin (Sus scrofa, UniProt P00761); test: trypsin protease activity blockade – biochemical, quenched peptide fluorescence, cherry-pick, selectivity assay for Rce1 protease inhibitor project, dose response (AID 488789)
Chain of Trypsin (P00761 whole entry): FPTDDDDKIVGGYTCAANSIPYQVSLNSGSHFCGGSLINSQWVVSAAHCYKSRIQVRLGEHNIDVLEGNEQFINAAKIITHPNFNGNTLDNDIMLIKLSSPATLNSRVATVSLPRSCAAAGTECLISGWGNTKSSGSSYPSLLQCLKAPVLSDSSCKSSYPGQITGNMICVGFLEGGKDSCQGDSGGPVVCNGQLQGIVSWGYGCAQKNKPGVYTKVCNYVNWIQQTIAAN

[12] = target: Acylamino-acid-releasing enzyme (Homo sapiens, UniProt P13798); test: endogenous PME-1 and serine hydrolase inhibition – cell lysate, mouse brain cytosol, FP-rhodamine, gel ABPP, selectivity assay for PME-1 inhibitor project, dose response, panel member APEH Assay Panel member description: Inhibition of N-acylaminoacyl-peptide hydrolase (APEH) (anti-target) (AID 2366)
[13] = target: T3, Heat shock factor protein 1 (Mus musculus, UniProt P38532); test: enhancement of HSF1-driven luciferase signal – cell-based, NIH3T3, luminescence, dose retest, confirmation (AID 435004); type: functional;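 further: stress induced by proteasome inhibitor MG132 added 30 min after compound; luciferase reporter driven by HSF1 response element in NIH3T3 cells; actives raise luminescence as potentiators of the MG132 stress response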
T3 sequence (P38532 whole entry): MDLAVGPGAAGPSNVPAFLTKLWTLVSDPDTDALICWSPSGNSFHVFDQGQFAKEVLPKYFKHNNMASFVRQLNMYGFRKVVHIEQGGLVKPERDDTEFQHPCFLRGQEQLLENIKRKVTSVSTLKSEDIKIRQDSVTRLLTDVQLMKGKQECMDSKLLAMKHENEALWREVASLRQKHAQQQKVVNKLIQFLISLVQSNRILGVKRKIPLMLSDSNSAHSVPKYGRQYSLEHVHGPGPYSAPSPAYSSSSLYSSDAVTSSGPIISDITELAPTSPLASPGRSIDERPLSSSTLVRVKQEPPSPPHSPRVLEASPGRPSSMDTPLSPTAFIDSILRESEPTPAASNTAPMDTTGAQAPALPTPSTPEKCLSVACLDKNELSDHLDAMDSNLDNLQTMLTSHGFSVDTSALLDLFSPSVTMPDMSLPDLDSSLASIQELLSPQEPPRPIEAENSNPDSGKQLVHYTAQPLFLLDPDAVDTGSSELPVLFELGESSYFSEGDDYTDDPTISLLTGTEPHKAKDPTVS

[14] = test system: Vero; test: cells; type: functional; conditions: Chlorocebus sabaeus
[15] = acridine orange displacement from DNA – biochemical, fluorescence polarization, cherry-pick, artefact control for RAD54 inhibitor project, dose response (AID 651673); type: functional
[16] = Trypanosoma cruzi growth suppression in host cells – NIH3T3 host cells, beta-gal luminescence, confirmation (AID 2044); type: functional, cell-based;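 further: intracellular parasites grown in NIH/3T3 mouse fibroblasts as host cells; luminescent beta-galactosidase reporter signal from transgenic T. cruzi replicating inside host cells; inhibitors lower the luminescence signal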
[17] = protection from phage-mediated lysis, alamar blue read-out – E. coli UTI89, K1F phage, bacterial capsule biogenesis inhibitors (AID 488966); type: functional
[18] = target: T4, DNA repair and recombination protein RAD54-like (Homo sapiens, UniProt Q92698); test: RAD54 Holliday junction migration blockers – biochemical, fluorescence, cherry-picked samples, dose series, confirmation (AID 651657); type: functional
T4 sequence (Q92698 whole entry): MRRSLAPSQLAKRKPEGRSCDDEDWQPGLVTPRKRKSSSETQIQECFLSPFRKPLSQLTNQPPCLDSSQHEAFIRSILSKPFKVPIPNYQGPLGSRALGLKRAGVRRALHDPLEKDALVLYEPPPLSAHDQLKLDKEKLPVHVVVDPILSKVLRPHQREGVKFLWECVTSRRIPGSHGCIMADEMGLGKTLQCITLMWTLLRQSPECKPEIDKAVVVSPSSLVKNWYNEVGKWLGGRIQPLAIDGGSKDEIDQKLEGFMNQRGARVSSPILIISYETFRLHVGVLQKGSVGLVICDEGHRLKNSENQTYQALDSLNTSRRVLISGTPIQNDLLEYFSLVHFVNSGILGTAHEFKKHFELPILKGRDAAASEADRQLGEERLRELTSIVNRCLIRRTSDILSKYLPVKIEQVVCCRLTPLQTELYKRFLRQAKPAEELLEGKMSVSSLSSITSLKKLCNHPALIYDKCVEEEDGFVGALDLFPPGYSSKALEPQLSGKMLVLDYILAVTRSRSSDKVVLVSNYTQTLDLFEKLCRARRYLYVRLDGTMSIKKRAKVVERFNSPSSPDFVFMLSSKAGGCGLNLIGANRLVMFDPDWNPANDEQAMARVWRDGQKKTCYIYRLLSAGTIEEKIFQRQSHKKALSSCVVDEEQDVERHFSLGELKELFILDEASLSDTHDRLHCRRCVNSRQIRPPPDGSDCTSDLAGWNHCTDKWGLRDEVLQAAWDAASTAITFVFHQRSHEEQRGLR

[19] = target: FAD-linked sulfhydryl oxidase ALR (Homo sapiens, UniProt P55789); test: ALR-catalysed DTT oxidation blockers – biochemical, H2O2 detection, luminescence, cherry-pick, dose response (AID 493248)
Chain of FAD-linked sulfhydryl oxidase ALR (P55789 whole entry): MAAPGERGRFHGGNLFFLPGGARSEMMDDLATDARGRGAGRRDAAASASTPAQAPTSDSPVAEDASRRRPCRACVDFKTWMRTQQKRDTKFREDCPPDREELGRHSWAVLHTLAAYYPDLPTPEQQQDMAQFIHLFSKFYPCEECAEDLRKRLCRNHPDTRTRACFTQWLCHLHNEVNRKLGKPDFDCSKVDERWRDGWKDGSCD

[20] = NIH3T3 cell viability loss – ATP luminescence, mouse fibroblasts, counter-screen, dose response (AID 2010); type: functional, cell-based;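 further: cells exposed to compound for about 90 hours before reading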
[21] = target: T5, DNA repair protein RAD52 homolog (Homo sapiens, UniProt P43351); type: functional, biochemical
T5 sequence (P43351 whole entry): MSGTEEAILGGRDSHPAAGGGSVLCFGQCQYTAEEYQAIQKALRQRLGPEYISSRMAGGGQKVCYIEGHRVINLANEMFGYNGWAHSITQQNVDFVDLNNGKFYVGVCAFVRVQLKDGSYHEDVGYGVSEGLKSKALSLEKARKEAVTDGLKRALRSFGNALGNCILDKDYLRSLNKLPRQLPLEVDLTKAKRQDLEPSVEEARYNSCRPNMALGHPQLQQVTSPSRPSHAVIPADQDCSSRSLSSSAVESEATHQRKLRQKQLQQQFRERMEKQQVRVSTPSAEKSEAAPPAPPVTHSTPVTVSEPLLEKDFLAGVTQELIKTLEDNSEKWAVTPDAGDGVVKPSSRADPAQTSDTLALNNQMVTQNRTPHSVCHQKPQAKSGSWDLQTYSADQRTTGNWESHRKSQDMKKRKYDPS

[22] = target: C-C chemokine receptor type 6 (Homo sapiens, UniProt P51684); test: antagonism of CCR6 beta-arrestin recruitment – cell-based, luminescent beta-arrestin readout, dose response (AID 504728); type: functional
Chain of C-C chemokine receptor type 6 (P51684 whole entry): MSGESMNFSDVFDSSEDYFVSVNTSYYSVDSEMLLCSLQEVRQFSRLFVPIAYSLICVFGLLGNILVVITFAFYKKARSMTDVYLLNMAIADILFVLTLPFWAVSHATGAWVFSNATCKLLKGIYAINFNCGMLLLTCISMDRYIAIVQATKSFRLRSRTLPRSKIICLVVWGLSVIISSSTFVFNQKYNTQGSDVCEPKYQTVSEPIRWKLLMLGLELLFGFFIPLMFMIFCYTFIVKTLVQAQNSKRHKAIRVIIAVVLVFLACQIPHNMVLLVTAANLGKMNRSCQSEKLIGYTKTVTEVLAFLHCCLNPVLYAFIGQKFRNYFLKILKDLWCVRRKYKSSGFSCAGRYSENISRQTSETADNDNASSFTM

[23] = target: Beta-galactosidase (Escherichia coli, UniProt Q8VNN2); test: detection-enzyme interference by beta-gal modulators – biochemical, E. coli enzyme, set 3, artefact control for CCR6 antagonist project, dose response (AID 504712); type: functional
[24] = target: SUMO E1/E2 (Homo sapiens, UniProt P63279+Q9UBE0+Q9UBT2); test: SAR analysis of SUMOylation using HTRF in an in-Vitro dose response assay. [Related pubchem assays (depositor defined):AID2006, AID2011, AID2018, AID2069, AID2658]; type: functional
[25] = target: T6, Voltage-gated N-type calcium channel alpha-1B subunit/Amyloid beta A4 precursor protein-binding family A member 1 (Homo sapiens, UniProt Q00975+Q02410); test: disruptors of Mint-PDZ/N-type channel peptide interaction – biochemical, HTRF, set 2, SAR follow-up (AID 434980); type: functional
T6 sequence (Q00975 whole entry): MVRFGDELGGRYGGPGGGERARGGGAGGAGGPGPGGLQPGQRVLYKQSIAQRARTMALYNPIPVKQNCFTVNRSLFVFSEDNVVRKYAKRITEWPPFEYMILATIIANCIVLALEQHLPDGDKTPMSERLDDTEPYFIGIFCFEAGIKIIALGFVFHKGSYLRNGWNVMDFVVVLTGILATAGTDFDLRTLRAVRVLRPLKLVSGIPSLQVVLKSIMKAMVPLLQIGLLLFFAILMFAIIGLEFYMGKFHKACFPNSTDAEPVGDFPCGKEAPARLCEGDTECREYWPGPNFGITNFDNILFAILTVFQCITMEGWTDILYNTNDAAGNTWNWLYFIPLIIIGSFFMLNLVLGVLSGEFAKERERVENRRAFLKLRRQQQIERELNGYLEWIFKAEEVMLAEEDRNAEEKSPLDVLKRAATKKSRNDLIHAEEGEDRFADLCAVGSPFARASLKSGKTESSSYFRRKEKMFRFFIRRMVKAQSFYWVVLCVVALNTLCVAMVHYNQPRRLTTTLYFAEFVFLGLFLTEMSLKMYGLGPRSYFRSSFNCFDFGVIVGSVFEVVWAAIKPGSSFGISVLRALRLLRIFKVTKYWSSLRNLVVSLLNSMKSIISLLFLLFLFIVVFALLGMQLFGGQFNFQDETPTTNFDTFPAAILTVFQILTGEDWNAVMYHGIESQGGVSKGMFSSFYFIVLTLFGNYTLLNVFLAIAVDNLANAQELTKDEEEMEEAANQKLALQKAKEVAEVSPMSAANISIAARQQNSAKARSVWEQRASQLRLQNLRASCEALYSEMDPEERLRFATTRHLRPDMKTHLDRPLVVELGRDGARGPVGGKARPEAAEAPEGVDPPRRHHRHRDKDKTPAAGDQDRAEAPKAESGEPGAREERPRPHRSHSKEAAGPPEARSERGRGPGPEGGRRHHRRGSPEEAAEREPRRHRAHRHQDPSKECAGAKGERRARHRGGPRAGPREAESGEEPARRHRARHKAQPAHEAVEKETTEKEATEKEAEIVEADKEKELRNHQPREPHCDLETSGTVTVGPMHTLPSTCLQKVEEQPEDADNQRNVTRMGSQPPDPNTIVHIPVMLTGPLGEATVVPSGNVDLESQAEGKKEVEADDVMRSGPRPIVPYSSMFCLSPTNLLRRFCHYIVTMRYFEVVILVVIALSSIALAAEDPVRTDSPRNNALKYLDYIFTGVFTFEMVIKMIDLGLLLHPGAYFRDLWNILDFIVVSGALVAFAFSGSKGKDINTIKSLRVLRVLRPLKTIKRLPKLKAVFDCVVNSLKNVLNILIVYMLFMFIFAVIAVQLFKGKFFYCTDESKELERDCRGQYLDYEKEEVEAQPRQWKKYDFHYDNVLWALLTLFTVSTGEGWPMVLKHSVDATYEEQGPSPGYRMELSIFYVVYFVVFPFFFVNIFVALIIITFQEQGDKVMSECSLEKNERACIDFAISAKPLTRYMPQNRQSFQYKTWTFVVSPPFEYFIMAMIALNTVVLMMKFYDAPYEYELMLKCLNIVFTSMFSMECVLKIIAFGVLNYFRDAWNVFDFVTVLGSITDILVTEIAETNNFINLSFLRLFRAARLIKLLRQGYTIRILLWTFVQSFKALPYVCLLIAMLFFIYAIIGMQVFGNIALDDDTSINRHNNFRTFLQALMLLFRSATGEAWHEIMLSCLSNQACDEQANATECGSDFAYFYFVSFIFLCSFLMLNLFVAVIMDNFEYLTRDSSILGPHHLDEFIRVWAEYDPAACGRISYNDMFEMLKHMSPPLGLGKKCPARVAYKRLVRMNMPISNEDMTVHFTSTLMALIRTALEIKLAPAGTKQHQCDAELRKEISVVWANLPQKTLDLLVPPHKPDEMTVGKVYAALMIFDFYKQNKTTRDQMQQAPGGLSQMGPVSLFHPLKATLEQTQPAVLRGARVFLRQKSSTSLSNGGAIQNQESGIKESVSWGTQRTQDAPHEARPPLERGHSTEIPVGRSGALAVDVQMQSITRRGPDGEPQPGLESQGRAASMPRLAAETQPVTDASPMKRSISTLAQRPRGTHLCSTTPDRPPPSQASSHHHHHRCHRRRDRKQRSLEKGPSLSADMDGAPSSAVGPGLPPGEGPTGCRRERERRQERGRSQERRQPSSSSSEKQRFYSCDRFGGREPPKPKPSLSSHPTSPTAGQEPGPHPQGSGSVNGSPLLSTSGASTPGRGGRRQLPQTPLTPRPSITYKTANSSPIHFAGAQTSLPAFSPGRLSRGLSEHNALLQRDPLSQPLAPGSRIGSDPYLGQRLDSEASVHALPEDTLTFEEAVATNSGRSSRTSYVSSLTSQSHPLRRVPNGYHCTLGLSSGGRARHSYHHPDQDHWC
T6 sequence (Q02410 whole entry): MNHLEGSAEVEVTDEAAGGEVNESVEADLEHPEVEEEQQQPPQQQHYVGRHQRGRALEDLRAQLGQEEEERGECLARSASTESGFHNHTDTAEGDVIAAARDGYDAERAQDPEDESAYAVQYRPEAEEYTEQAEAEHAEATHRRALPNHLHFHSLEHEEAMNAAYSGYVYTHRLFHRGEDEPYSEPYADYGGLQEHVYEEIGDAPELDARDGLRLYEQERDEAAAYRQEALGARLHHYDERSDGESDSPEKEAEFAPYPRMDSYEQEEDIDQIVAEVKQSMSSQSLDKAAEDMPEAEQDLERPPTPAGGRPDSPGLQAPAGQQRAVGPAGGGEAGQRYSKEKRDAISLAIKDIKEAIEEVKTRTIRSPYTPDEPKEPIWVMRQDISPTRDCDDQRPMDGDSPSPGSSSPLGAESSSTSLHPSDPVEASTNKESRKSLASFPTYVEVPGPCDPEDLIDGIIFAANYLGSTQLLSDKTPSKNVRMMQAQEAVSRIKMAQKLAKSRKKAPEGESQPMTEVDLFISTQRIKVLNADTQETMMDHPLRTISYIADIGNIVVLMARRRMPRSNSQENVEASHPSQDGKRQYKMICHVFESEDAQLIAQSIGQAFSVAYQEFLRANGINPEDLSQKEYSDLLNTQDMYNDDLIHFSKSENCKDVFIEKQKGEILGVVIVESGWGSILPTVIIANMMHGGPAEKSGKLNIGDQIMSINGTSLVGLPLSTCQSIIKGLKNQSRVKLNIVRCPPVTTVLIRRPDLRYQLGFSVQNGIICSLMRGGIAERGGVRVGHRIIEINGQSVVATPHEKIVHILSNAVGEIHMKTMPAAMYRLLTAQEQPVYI

[26] = target: T6, Voltage-gated N-type calcium channel alpha-1B subunit/Amyloid beta A4 precursor protein-binding family A member 1; test: disruptors of Mint-PDZ/N-type channel peptide interaction – biochemical, HTRF, SAR follow-up (AID 2489); type: functional

In the case of `O=C(O)COc1ccc2c(c1)O/C(=C\c1ccco1)C2=O`, the AC50 [1] is reported as 157 µM (active), the AC50 [2] is reported as > 20 µM (inactive) and the IC50 [3] is reported as 3.74 µM (active).

For `O=C(CNc1cccc(C(F)(F)F)c1)N/N=C/c1cccc(Br)c1`, the “Absolute IC50 (XBP1)” value [4] was 10 µM.

With `COc1ccc(N(C(=O)CSc2ncccn2)C(C(=O)NCCc2ccccc2)c2cccs2)cc1Cl` (stereo unspecified) the AC50 [5] was > 381 µM (inactive).

In the case of `CS(=O)(=O)/C(C#N)=C/c1cccn1S(=O)(=O)c1ccc([N+](=O)[O-])cc1[N+](=O)[O-]`, the IC50 [6] is reported as > 20 µM (inactive).

With `COc1cc(NC(=O)c2ccco2)c(OC)cc1NC(=O)Nc1ccc(Cl)cc1` the AC50 [7] was 6.53 µM (active).

For `CCOC(=O)C1CCN(c2ccc([N+](=O)[O-])cc2)CC1`, the CC50 [8] was > 33 µM (not active) and the AC50 [9] was 40.5 µM (active).

In the case of `CCOP(=O)(c1ccccc1)c1nc(-c2ccccc2Cl)oc1N1CCCCC1` (stereo unspecified), the AC50 [10] is reported as 5.21 µM (active) and the AC50 [11] is reported as 4.67 µM (active).

For `CS(=O)(=O)/C(C#N)=C/c1cccn1S(=O)(=O)c1ccccc1`, the IC50 [12] was 20 µM (inactive).

With `CN1CCN(c2ccc(Nc3ccnc4cc(Cl)ccc34)cc2)CC1` the EC50 [13] was > 260 µM (inactive), the CC50 [14] was 17.1 µM (active) and the AC50 [15] was 56.1 µM (active). For the same compound, the EC50 [16] was 1.39 µM (active), the IC50 [17] was > 300 µM (active) and the AC50 [18] was 6.94 µM (active). The AC50 [19] was 5.43 µM (active), the EC50 [20] was 10.4 µM (active) and the AC50 [21] was 2.47 µM (active).

With `COC(=O)N/N=C/c1cc(N=Nc2ccccc2Cl)ccc1O` the IC50 [22] was > 66.6 µM (inactive) and the IC50 [23] was > 66.6 µM (inactive).

With `COC(=O)c1ccc(CNC(=O)COC(=O)c2cc(-c3ccco3)nc3ccccc23)cc1` the IC50 [24] was 2.23 µM (active), the IC50 [25] was 6.74 µM (active) and the IC50 [26] was 19.2 µM (active).

— ChEMBL document CHEMBL1201862, “PubChem BioAssay data set” (2004)
